Experimental data from ChEMBL document CHEMBL1201861, “Genomics of Drug Sensitity in Cancer screening data, Wellcome Trust Sanger Institute”.

Assays:
Experiment in all cases: cells
ETK-1 = type: functional, cell-based, Homo sapiens; settings: Homo sapiens, ETK-1;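 also: growth inhibition of human ETK-1 cells, read out with a cell viability assay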
Description: SANGER: Inhibition of human ETK-1 cell growth in a cell viability assay.

NCI-H526 = type: functional, cell-based; settings: Homo sapiens;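 also: growth inhibition of the human NCI-H526 cell line, measured by a cell viability assay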
Description: SANGER: Inhibition of human NCI-H526 cell growth in a cell viability assay.

LS-513 = type: functional, cell-based, Homo sapiens; settings: Homo sapiens, LS-513
Description: SANGER: Inhibition of human LS-513 cell growth in a cell viability assay.

BB49-HNC = type: functional, cell-based, Homo sapiens; settings: Homo sapiens, BB49-HNC;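 also: cell viability assay read-out, reported as inhibition of BB49-HNC cell growth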
Description: SANGER: Inhibition of human BB49-HNC cell growth in a cell viability assay.

LC-2-ad = type: functional, cell-based, Homo sapiens; settings: Homo sapiens, LC-2-ad;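 also: growth inhibition of human LC-2-ad cells, read out with a cell viability assay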
Description: SANGER: Inhibition of human LC-2-ad cell growth in a cell viability assay.

NCI-H2126 = type: functional, cell-based, Homo sapiens; settings: Homo sapiens, NCI-H2126;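 also: growth inhibition of the cancer cell line, determined with a cell viability readout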
Description: SANGER: Inhibition of human NCI-H2126 cell growth in a cell viability assay.

BB30-HNC = type: functional, cell-based, Homo sapiens; settings: Homo sapiens, BB30-HNC;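 also: growth inhibition of the cultured cell line, read out by a cell viability assay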
Description: SANGER: Inhibition of human BB30-HNC cell growth in a cell viability assay.

KLE = type: functional, cell-based, Homo sapiens; settings: Homo sapiens, KLE;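 also: growth inhibition of human KLE cells, read out with a cell viability assay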
Description: SANGER: Inhibition of human KLE cell growth in a cell viability assay.

DB = type: functional, cell-based; settings: Homo sapiens
Description: SANGER: Inhibition of human DB cell growth in a cell viability assay.

ES8 = type: functional, cell-based, Homo sapiens; settings: Homo sapiens, ES8;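 also: growth inhibition of human ES8 cells, read out with a cell viability assay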
Description: SANGER: Inhibition of human ES8 cell growth in a cell viability assay.

SBC-1 = type: functional, cell-based; settings: Homo sapiens;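 also: cell viability assay measuring growth inhibition of the SBC-1 cell line, IC50 being the concentration that halves growth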
Description: SANGER: Inhibition of human SBC-1 cell growth in a cell viability assay.

IST-MEL1 = type: functional, cell-based, Homo sapiens; settings: Homo sapiens, IST-MEL1;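 also: growth inhibition of the cell line, read out with a cell viability assay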
Description: SANGER: Inhibition of human IST-MEL1 cell growth in a cell viability assay.

MHH-PREB-1 = type: functional, cell-based; settings: Homo sapiens;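 also: cell viability assay measuring inhibition of proliferation of human MHH-PREB-1 cells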
Description: SANGER: Inhibition of human MHH-PREB-1 cell growth in a cell viability assay.

LOX IMVI = type: functional, cell-based; settings: Homo sapiens
Description: SANGER: Inhibition of human LOXIMVI cell growth in a cell viability assay.

NB5 = type: functional, cell-based, Homo sapiens; settings: Homo sapiens, NB5;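 also: growth inhibition of NB5 cells, read out as cell viability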
Description: SANGER: Inhibition of human NB5 cell growth in a cell viability assay.

ES4 = type: functional, cell-based, Homo sapiens; settings: Homo sapiens, ES4;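 also: growth inhibition of human ES4 cells, read out by a cell viability assay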
Description: SANGER: Inhibition of human ES4 cell growth in a cell viability assay.

A498 = type: functional, cell-based, Homo sapiens; settings: Homo sapiens, A498;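 also: growth inhibition of human A498 cells, read out with a cell viability assay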
Description: SANGER: Inhibition of human A498 cell growth in a cell viability assay.

DEL = type: functional, cell-based; settings: Homo sapiens;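 also: growth inhibition of the human DEL cell line, read out with a cell viability assay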
Description: SANGER: Inhibition of human DEL cell growth in a cell viability assay.

MZ1-PC = type: functional, cell-based, Homo sapiens; settings: Homo sapiens, MZ1-PC;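 also: cell viability assay measuring growth inhibition of human MZ1-PC cells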
Description: SANGER: Inhibition of human MZ1-PC cell growth in a cell viability assay.

KE-37 = type: functional, cell-based; settings: Homo sapiens;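 also: growth inhibition of KE-37 cells, read out with a cell viability assay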
Description: SANGER: Inhibition of human KE-37 cell growth in a cell viability assay.

EW-13 = type: functional, cell-based; settings: Homo sapiens;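 also: growth inhibition of EW-13 cells, read out with a cell viability assay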
Description: SANGER: Inhibition of human EW-13 cell growth in a cell viability assay.

KNS-42 = type: functional, cell-based, Homo sapiens; settings: Homo sapiens, KNS-42;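 also: growth inhibition of KNS-42 cells, read out with a cell viability assay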
Description: SANGER: Inhibition of human KNS-42 cell growth in a cell viability assay.

MEG-01 = type: functional, cell-based; settings: Homo sapiens;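 also: growth inhibition of MEG-01 cells, read out by a cell viability assay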
Description: SANGER: Inhibition of human MEG-01 cell growth in a cell viability assay.

SMILES | IC50 (ETK-1) | IC50 (NCI-H526) | IC50 (LS-513) | IC50 (BB49-HNC) | IC50 (LC-2-ad) | IC50 (NCI-H2126) | IC50 (BB30-HNC) | IC50 (KLE) | IC50 (DB) | IC50 (ES8) | IC50 (SBC-1) | IC50 (IST-MEL1) | IC50 (MHH-PREB-1) | IC50 (LOX IMVI) | IC50 (NB5) | IC50 (ES4) | IC50 (A498) | IC50 (DEL) | IC50 (MZ1-PC) | IC50 (KE-37) | other results
CO[C@H]1C[C@@H]2CC[C@@H](C)[C@@](O)(O2)C(=O)C(=O)N2CCCC[C@H]2C(=O)O[C@H]([C@H](C)C[C@@H]2CC[C@@H](O)[C@H](OC)C2)CC(=O)[C@H](C)/C=C(\C)[C@@H](O)[C@@H](OC)C(=O)[C@H](C)C[C@H](C)/C=C/C=C/C=C/1C [SIROLIMUS] | 0.00282 µM | 0.0936 µM | > 0.1 µM | > 0.1 µM | 0.000423 µM | > 0.1 µM | > 0.1 µM | > 0.1 µM | > 0.1 µM | > 0.1 µM | > 0.1 µM | > 0.1 µM | 0.0324 µM | > 0.1 µM | > 0.1 µM | < 0.000391 µM | > 0.1 µM | 0.018 µM | > 0.1 µM | 0.0161 µM | IC50 (EW-13): > 0.1 µM; IC50 (KNS-42): > 0.1 µM; IC50 (MEG-01): > 0.1 µM
CCC(=O)N1CCN(c2ccc(-n3c(=O)ccc4cnc5ccc(-c6cnc7ccccc7c6)cc5c43)cc2C(F)(F)F)CC1 [TORIN1] | < 0.00469 µM | 0.91 µM | 0.391 µM | 0.136 µM | 0.0214 µM | 0.114 µM | 0.0573 µM | 0.0658 µM | 0.501 µM | 0.0184 µM | 0.111 µM | 0.0177 µM | 0.0182 µM | 0.125 µM | 0.0963 µM | 0.083 µM | > 1.2 µM | 0.0281 µM | 0.066 µM | 0.0157 µM | IC50 (EW-13): > 1.2 µM; IC50 (KNS-42): 0.082 µM; IC50 (MEG-01): 0.186 µM
Cc1cc(Nc2cc(N3CCN(C)CC3)nc(Sc3ccc(NC(=O)C4CC4)cc3)n2)n[nH]1 [TOZASERTIB] | 1.14 µM | > 2 µM | > 2 µM | > 2 µM | 0.0879 µM | > 2 µM | 0.226 µM | > 2 µM | > 2 µM | 0.0461 µM | 1.13 µM | > 2 µM | > 2 µM | > 2 µM | 1.64 µM | 0.911 µM | > 2 µM | 1.26 µM | > 2 µM | 0.521 µM | IC50 (EW-13): > 2 µM; IC50 (KNS-42): > 2 µM; IC50 (MEG-01): 0.278 µM
